Laboratory results as given in patent US12479858B2, “Macrocyclic compounds as sting agonists and methods and uses thereof” (Lupin Limited, priority 2019, dated 2025).
pEC50: −log10 of the molar value. Values after ≈ are worked out from the molar mass of the structure shown. Counter-ions that a name gives are not always drawn.

Legend:
Human STING = biological target: T1, Human STING (Homo sapiens, UniProt Q86WV6, G230A/H232R/R293Q/R71H); assay: Stimulation of human STING signaling in THP1 cell line (THP1-Blue ISG SEAP reporter); assay type: cell-based; conditions: THP1-Blue ISG cells, SEAP activity, 18-20 hours
T1 construct: using human THP1-Blue™ ISG SEAP based reporter cell line (Invivogen); host or cells: THP1-Blue ISG cells (human monocytic THP-1 derived SEAP reporter line)
Procedure: Biological Assay—Stimulation of Human STING Signaling in THP1 Cell Line
Compounds were tested for their STING activation potential using human THP1-Blue™ ISG SEAP based reporter cell line (Invivogen). Briefly, THP1-Blue ISG cells (100,000 cells/well) in 96 well plate were treated with varying concentrations of test and reference compounds and incubated at 37° C. with 5% CO2 for 18-20 hours. The control untreated cells were also set up. Post incubation, the cell supernatant was tested for SEAP (Secreted Embryonic Alkaline Phosphatase) activity using the QuantiBlue™ substrate reagent (Invivogen). The formation of blue coloured product was quantified by measuring absorbance at wavelength of 620 nm using PheraStar/Tecan reader. The average of duplicate readouts for each data point was plotted in GraphPad prism 6 against the concentration of test or reference compound to calculate EC50 value. The fold of SEAP induction or increase in luminescence at different data points was estimated against the un-stimulated cell control set.

[1] = Apparent solubility/extended kinetic solubility by UHPLC; assay type: physicochemical; conditions: aqueous buffer, thermodynamic from solid, phosphate buffer, 37° C.
Procedure: Biological Assay—Determination of Apparent Solubility/Extended Kinetic Solubility by UHPLC
Test sample preparation: About 0.5 mg of the test sample was weighed and transferred in duplicate in 1 mL glass inserts of 96 well plates. 5 μL of DMSO and 1 ml of phosphate buffer were added. Allowed for equilibrium in an orbital shaker at 37° C. for 24 hrs. Later, allowed it cool to room temperature and centrifuged the 96 well plate (at 240×10 RPM for 20 min) and supernatant material was taken into collection plate, covered it with the heat resistant aluminum sheet or supernatant material was directly taken into HPLC sample vial.
Injected diluent as blank and linearity solutions in duplicate. Recorded the chromatograms and plotted the calibration curve, concentration (X-axis) versus Area (y-axis). The correlation coefficient for calibration curve should be not less than 0.95. If above criteria passes, then injected the test samples and recorded the chromatograms. In case saturated peaks are observed, then diluted the test sample with diluent as appropriate.
Calculated the slope and intercept of the calibration curve. From the standard curve, determined the solubility of the sample in μM (micromolar).

T1 sequence (Q86WV6 whole entry R71H/G230A/H232R/R293Q): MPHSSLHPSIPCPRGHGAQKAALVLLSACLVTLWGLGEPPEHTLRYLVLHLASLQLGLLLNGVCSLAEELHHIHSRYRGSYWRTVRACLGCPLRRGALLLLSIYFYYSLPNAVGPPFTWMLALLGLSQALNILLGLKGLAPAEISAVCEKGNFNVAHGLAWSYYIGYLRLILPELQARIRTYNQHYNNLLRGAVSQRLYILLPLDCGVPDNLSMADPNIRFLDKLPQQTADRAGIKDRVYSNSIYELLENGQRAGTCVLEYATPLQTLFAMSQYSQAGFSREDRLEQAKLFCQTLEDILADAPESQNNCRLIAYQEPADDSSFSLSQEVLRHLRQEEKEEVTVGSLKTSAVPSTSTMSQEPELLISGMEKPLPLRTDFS

pEC50 (Human STING) | solubility at 24 h [1] [µM] | Compound
7.00 to 7.96 | – | CCn1nc(C)cc1C(=O)Nc1nc2cc(C(N)=O)cc3c2n1C/C=C/Cn1c(NC(=O)c2cc(C)nn2CC)nc2cc(C(=O)N[C@H]4CC[C@@H](C(=O)O)CC4)cc(c21)OCCCO3 [Compound 1, (1S,4S)-4-((E)-12-carbamoyl-1,15-bis(1-ethyl-3-methyl-1H-pyrazole-5-carboxamido)-8,9,16,19-tetrahydro-7H-6,10-dioxa-2,14,15a,19a-tetraazacyclopentadeca[3,2,1-cd:8,9,10-c′d′]diindene-4-carboxamido)cyclohexane-1-carboxylic acid]
8.00 to 9.00 | 928 | CCn1nc(C)cc1C(=O)Nc1nc2cc(C(N)=O)cc3c2n1C/C=C/Cn1c(NC(=O)c2cc(C)nn2CC)nc2cc(C(=O)NCCCc4nnn[nH]4)cc(c21)OCCCO3 [Compound 3, (E)-N-(3-(1H-tetrazol-5-yl)propyl)-1,15-bis(1-ethyl-3-methyl-1H-pyrazole-5-carboxamido)-8,9,16,19-tetrahydro-7H-6,10-dioxa-2,14,15a,19a-tetraazacyclopentadeca[3,2,1-cd:8,9,10-c′d′]diindene-4,12-dicarboxamide sodium salt]
8.00 to 9.00 | 149 (≈ 126 µg/mL) | CCn1nc(C)cc1C(=O)Nc1nc2cc(C(N)=O)cc3c2n1C/C=C/Cn1c(NC(=O)c2cc(C)nn2CC)nc2cc(C(=O)NCCc4nnn[nH]4)cc(c21)OCCCO3 [Compound 4, (E)-N-(2-(1H-tetrazol-5-yl)ethyl)-1,15-bis(1-ethyl-3-methyl-1H-pyrazole-5-carboxamido)-8,9,16,19-tetrahydro-7H-6,10-dioxa-2,14,15a,19a-tetraazacyclopentadeca[3,2,1-cd:8,9,10-c′d′]diindene-4,12-dicarboxamide]
8.00 to 9.00 | 1120 | CCn1nc(C)cc1C(=O)Nc1nc2cc(C(N)=O)cc3c2n1C/C=C/Cn1c(NC(=O)c2cc(C)nn2CC)nc2cc(C(=O)NCCc4ccccc4C(=O)O)cc(c21)OCCCO3 [Compound 5, (E)-2-(2-(12-carbamoyl-1,15-bis(1-ethyl-3-methyl-1H-pyrazole-5-carboxamido)-8,9,16,19-tetrahydro-7H-6,10-dioxa-2,14,15a,19a-tetraazacyclopentadeca[3,2,1-cd:8,9,10-c′d′]diindene-4-carboxamido)ethyl)benzoic acid sodium salt]
7.00 to 7.96 | – | CCn1nc(C)cc1C(=O)Nc1nc2cc(C(N)=O)cc3c2n1C/C=C/Cn1c(NC(=O)c2cc(C)nn2CC)nc2cc(C(=O)N[C@H]4CC[C@@H](c5nnn[nH]5)CC4)cc(c21)OCCCO3 [Compound 7, (E)-N-((1S,4S)-4-(1H-tetrazol-5-yl)cyclohexyl)-1,15-bis(1-ethyl-3-methyl-1H-pyrazole-5-carboxamido)-8,9,16,19-tetrahydro-7H-6,10-dioxa-2,14,15a,19a-tetraazacyclopentadeca[3,2,1-cd:8,9,10-c′d′]diindene-4,12-dicarboxamide]
7.00 to 7.96 | 100 (≈ 88.4 µg/mL) | CCn1nc(C)cc1C(=O)Nc1nc2cc(C(N)=O)cc3c2n1C/C=C/Cn1c(NC(=O)c2cc(C)nn2CC)nc2cc(C(=O)NCc4ncccc4C(=O)O)cc(c21)OCCCO3 [Compound 9, (E)-2-((4-carbamoyl-1,15-bis(1-ethyl-3-methyl-1H-pyrazole-5-carboxamido)-8,9,16,19-tetrahydro-7H-6,10-dioxa-2,14,15a,19a-tetraazacyclopentadeca[3,2,1-cd:8,9,10-c′d′]diindene-12-carboxamido)methyl)nicotinic acid]
7.00 to 7.96 | 631 (≈ 552 µg/mL) | CCn1nc(C)cc1C(=O)Nc1nc2cc(C(N)=O)cc3c2n1C/C=C/Cn1c(NC(=O)c2cc(C)nn2CC)nc2cc(C(=O)NCCCn4nn[nH]c4=O)cc(c21)OCCCO3 [Compound 10, (E)-1,15-bis(1-ethyl-3-methyl-1H-pyrazole-5-carboxamido)-N-(3-(5-oxo-4,5-dihydro-1H-tetrazol-1-yl)propyl)-8,9,16,19-tetrahydro-7H-6,10-dioxa-2,14,15a,19a-tetraazacyclopentadeca[3,2,1-cd:8,9,10-c′d′]diindene-4,12-dicarboxamide]
8.00 to 9.00 | 98 (≈ 85.7 µg/mL) | CCn1nc(C)cc1C(=O)Nc1nc2cc(C(N)=O)cc3c2n1C/C=C/Cn1c(NC(=O)c2cc(C)nn2CC)nc2cc(C(=O)NCCCc4noc(=O)[nH]4)cc(c21)OCCCO3 [Compound 11, (E)-1,15-bis(1-ethyl-3-methyl-1H-pyrazole-5-carboxamido)-N-(3-(5-oxo-4,5-dihydro-1,2,4-oxadiazol-3-yl)propyl)-8,9,16,19-tetrahydro-7H-6,10-dioxa-2,14,15a,19a-tetraazacyclopentadeca[3,2,1-cd:8,9,10-c′d′]diindene-4,12-dicarboxamide]
7.00 to 7.96 | – | CCn1nc(C)cc1C(=O)Nc1nc2cc(C(N)=O)cc3c2n1C/C=C/Cn1c(NC(=O)c2cc(C)nn2CC)nc2cc(C(=O)NCCCc4nnn[nH]4)cc(c21)OC[C@H](N1C2CCC1COC2)CO3 [Compound 17, (8R,E)-N4-(3-(1H-tetrazol-5-yl)propyl)-8-(3-oxa-8-azabicyclo[3.2.1]octan-8-yl)-1,15-bis(1-ethyl-3-methyl-1H-pyrazole-5-carboxamido)-8,9,16,19-tetrahydro-7H-6,10-dioxa-2,14,15a,19a-tetraazacyclopentadeca[3,2,1-cd:8,9,10-c′d′]diindene-4,12-dicarboxamide sodium salt]
7.00 to 7.96 | – | CCn1nc(C)cc1C(=O)Nc1nc2cc(C(N)=O)cc3c2n1C/C=C/Cn1c(NC(=O)c2cc(C)nn2CC)nc2cc(C(=O)NCCCn4cc(C(=O)O)cn4)cc(c21)OC[C@H](N1C2CCC1COC2)CO3 [Compound 19, 1-(3-((8R,E)-8-(3-oxa-8-azabicyclo[3.2.1]octan-8-yl)-12-carbamoyl-1,15-bis(1-ethyl-3-methyl-1H-pyrazole-5-carboxamido)-8,9,16,19-tetrahydro-7H-6,10-dioxa-2,14,15a,19a-tetraazacyclopentadeca[3,2,1-cd:8,9,10-c′d′]diindene-4-carboxamido)propyl)-1H-pyrazole-4-carboxylic acid sodium salt]
7.00 to 7.96 | – | CCn1nc(C)cc1C(=O)Nc1nc2cc(C(N)=O)cc3c2n1C/C=C/Cn1c(NC(=O)c2cc(C)nn2CC)nc2cc(C(=O)N[C@H]4CC[C@H](C(=O)O)CC4)cc(c21)OCC(N1CC2CCC(C1)O2)CO3 (stereo partly drawn) [Compound 20, (1R,4R)-4-((E)-8-(8-oxa-3-azabicyclo[3.2.1]octan-3-yl)-12-carbamoyl-1,15-bis(1-ethyl-3-methyl-1H-pyrazole-5-carboxamido)-8,9,16,19-tetrahydro-7H-6,10-dioxa-2,14,15a,19a-tetraazacyclopentadeca[3,2,1-cd:8,9,10-c′d′]diindene-4-carboxamido)cyclohexane-1-carboxylic acid]
7.00 to 7.96 | – | CCn1nc(C)cc1C(=O)Nc1nc2cc(C(N)=O)cc3c2n1C/C=C/Cn1c(NC(=O)c2cc(C)nn2CC)nc2cc(C(=O)N[C@H]4CC[C@H](c5nnn[nH]5)CC4)cc(c21)OCC(N1CC2CCC(C1)O2)CO3 (stereo partly drawn) [Compound 22, (E)-N-((1R,4R)-4-(1H-tetrazol-5-yl)cyclohexyl)-8-(8-oxa-3-azabicyclo[3.2.1]octan-3-yl)-1,15-bis(1-ethyl-3-methyl-1H-pyrazole-5-carboxamido)-8,9,16,19-tetrahydro-7H-6,10-dioxa-2,14,15a,19a-tetraazacyclopentadeca [3,2,1-cd:8,9,10-c′d′]diindene-4,12-dicarboxamide]
